Test results taken from ChEMBL document CHEMBL5634077, “Recent advances in 1,2,3- and 1,2,4-triazole hybrids as antimicrobials and their SAR: A critical review” (2023).
In brackets after ≈: the same amount, converted by molar mass. Each block holds one molecule with its values, some of them ahead of it.

How the values were obtained:
Staphylococcus aureus [1] = test: Antibacterial activity against methicillin resistant Staphylococcus aureus incubated for 20 hrs by broth microdilution method; type: functional
Candida albicans [2] = test: Antifungal activity against Candida albicans ATCC 90028 assessed as growth inhibition incubated for 24 hrs; type: functional
Candida albicans [3] = test: Antifungal activity against Candida albicans SC5314 assessed as reduction in fungal growth incubated for 24 hrs by NCCLS based assay; type: functional
Trichophyton rubrum = test: Antifungal activity against Trichophyton rubrum assessed as reduction in fungal growth incubated for 5 to 7 days by NCCLS based assay; type: functional; conditions: time 5-7 day
Candida albicans [4] = test: Antifungal activity against Candida albicans Y0109 assessed as reduction in fungal growth incubated for 24 hrs by NCCLS based assay; type: functional
Nannizzia gypsea = test: Antifungal activity against Microsporum gypseum assessed as reduction in fungal growth incubated for 5 to 7 days by NCCLS based assay; type: functional; conditions: time 5-7 day
Cryptococcus neoformans [5] = test: Antifungal activity against Cryptococcus neoformans 32609 assessed as reduction in fungal growth incubated for 72 hrs by NCCLS based assay; type: functional
Aspergillus fumigatus = test: Antifungal activity against Aspergillus fumigatus 7544 assessed as reduction in fungal growth incubated for 5 to 7 days by NCCLS based assay; type: functional; conditions: time 5-7 day
Nakaseomyces glabratus = test: Antifungal activity against Candida glabrata 537 assessed as reduction in fungal growth incubated for 72 hrs by NCCLS based assay; type: functional
Candida albicans [6] = test: Antifungal activity against Candida albicans assessed as fungal growth inhibition by CLSI based method; type: functional
Cryptococcus neoformans [7] = test: Antifungal activity against Cryptococcus neoformans assessed as fungal growth inhibition by CLSI based method; type: functional
Bacillus subtilis [8] = test: Antibacterial activity against Bacillus subtilis MTCC 441 assessed as reduction in bacterial growth; type: functional
Pseudomonas aeruginosa = test: Antibacterial activity against Pseudomonas aeruginosa MTCC 1034 assessed as reduction in bacterial growth; type: functional
Bacillus subtilis [9] = test: Antibacterial activity against Bacillus subtilis ATCC 6633 assessed as reduction in microbial growth; type: functional
Staphylococcus aureus [10] = test: Antibacterial activity against Staphylococcus aureus ATCC 6538p assessed as reduction in microbial growth; type: functional
Salmonella typhimurium = test: Antibacterial activity against Salmonella typhimurium SL1344 assessed as reduction in microbial growth; type: functional, Salmonella enterica subsp. enterica serovar Typhimurium; conditions: Salmonella enterica
Micrococcus luteus = test: Antibacterial activity against Micrococcus luteus IFC 12708 assessed as reduction in microbial growth; type: functional
Proteus vulgaris = test: Antibacterial activity against Proteus vulgaris ATCC 3851 assessed as reduction in microbial growth; type: functional
Escherichia coli = test: Antibacterial activity against Escherichia coli ATCC 25922 assessed as reduction in microbial growth; type: functional
Aspergillus niger = test: Antifungal activity against Aspergillus niger assessed as fungal growth inhibition; type: functional
Candida albicans [11] = test: Antifungal activity against Candida albicans assessed as inhibition of fungal growth; type: functional
Rhizopus = test: Antifungal activity against Rhizopus assessed as inhibition of fungal growth; type: functional
Aspergillus flavus = test: Antifungal activity against Aspergillus flavus assessed as inhibition of fungal growth; type: functional
Staphylococcus aureus [12] = test: Antibacterial activity against Staphylococcus aureus assessed as diameter of inhibition zone; type: functional

Structure (SMILES): COc1cc(/C=C/c2ccc(OCc3cn(CCCCCC(=O)O)nn3)cc2)cc(OC)c1
MIC (Staphylococcus aureus [1]): 78.1 µg/mL (≈ 173 µM)

Structure (SMILES): CCCNC(=O)c1nnn(-c2ccc(CC)cc2)c1C
growth inhibition (GI) (Candida albicans [2]): 14.1%

Structure (SMILES): C[C@@H](OCc1cc(-c2cccc(F)c2F)no1)[C@](O)(Cn1cncn1)c1ccc(F)cc1F
MIC80 (Candida albicans [3]): 0.5 µg/mL (≈ 1.08 µM)
MIC80 (Trichophyton rubrum): 2 µg/mL (≈ 4.33 µM)
MIC80 (Candida albicans [4]): 0.25 µg/mL (≈ 0.541 µM)
MIC80 (Nannizzia gypsea): 1 µg/mL (≈ 2.16 µM)
MIC80 (Cryptococcus neoformans [5]): 1 µg/mL (≈ 2.16 µM)
MIC80 (Aspergillus fumigatus): 8 µg/mL (≈ 17.3 µM)
MIC80 (Nakaseomyces glabratus): 0.5 µg/mL (≈ 1.08 µM)

Structure (SMILES): O=C(c1ccc(Cl)cc1)C(C(c1ccccc1)c1ccccc1)n1cncn1 (stereo not given)
MIC (Candida albicans [6]): 0.5 µg/mL (≈ 1.29 µM)
MIC (Cryptococcus neoformans [7]): 0.5 µg/mL (≈ 1.29 µM)

Structure (SMILES): Cc1ccc(-c2cc(CO[C@H](C)[C@](O)(Cn3cncn3)c3ccc(F)cc3F)on2)cc1
MIC80 (Candida albicans [3]): 0.25 µg/mL (≈ 0.568 µM)
MIC80 (Trichophyton rubrum): 4 µg/mL (≈ 9.08 µM)
MIC80 (Candida albicans [4]): 0.125 µg/mL (≈ 0.284 µM)
MIC80 (Nannizzia gypsea): 2 µg/mL (≈ 4.54 µM)
MIC80 (Cryptococcus neoformans [5]): 2 µg/mL (≈ 4.54 µM)
MIC80 (Aspergillus fumigatus): 8 µg/mL (≈ 18.2 µM)
MIC80 (Nakaseomyces glabratus): 0.5 µg/mL (≈ 1.14 µM)

Structure (SMILES): CCCCNC(=O)c1nnn(-c2ccc(Br)cc2)c1C
growth inhibition (GI) (Candida albicans [2]): 63.7%

Structure (SMILES): Cc1ccccc1-c1cc(CO[C@H](C)[C@](O)(Cn2cncn2)c2ccc(F)cc2F)on1
MIC80 (Candida albicans [3]): 0.125 µg/mL (≈ 0.284 µM)
MIC80 (Trichophyton rubrum): 4 µg/mL (≈ 9.08 µM)
MIC80 (Candida albicans [4]): 0.031 µg/mL (≈ 0.0704 µM)
MIC80 (Nannizzia gypsea): 2 µg/mL (≈ 4.54 µM)
MIC80 (Cryptococcus neoformans [5]): 1 µg/mL (≈ 2.27 µM)
MIC80 (Aspergillus fumigatus): 4 µg/mL (≈ 9.08 µM)
MIC80 (Nakaseomyces glabratus): 0.25 µg/mL (≈ 0.568 µM)

Structure (SMILES): COc1cc(/C=C/c2ccc(OCc3cn(Cc4ccc(C(=O)O)cc4)nn3)cc2)cc(OC)c1
MIC (Staphylococcus aureus [1]): 312 µg/mL (≈ 663 µM)

Structure (SMILES): C[C@@H]1[C@H](O)[C@@H](C)/C=C/C=C/C=C/C=C/C=C/C=C/C=C/[C@H](O[C@@H]2O[C@H](C)[C@@H](O)[C@H](N)[C@@H]2O)C[C@@H]2O[C@](O)(C[C@@H](O)C[C@@H](O)[C@H](O)CC[C@@H](O)C[C@@H](O)CC(=O)O[C@H]1C)C[C@H](O)[C@H]2C(=O)O [AMPHOTERICIN B]
MIC (Candida albicans [11]): 8 µg/mL (≈ 8.66 µM)
MIC (Rhizopus): 16 µg/mL (≈ 17.3 µM)
MIC (Aspergillus flavus): 8 µg/mL (≈ 8.66 µM)

Structure (SMILES): [N-]=[N+]=Nc1ccc(-n2cc(Cn3c(=O)sc4cc(Br)ccc43)nn2)c(Cl)c1
growth inhibition (GI) (Candida albicans [2]): 63.7%

Structure (SMILES): CCCCC(=O)c1cc(C(=O)CCCC)cc(-n2cc(C(C)N3C(=O)C(=O)c4ccccc43)nn2)c1 (stereo not given)
diameter of the inhibition zone (DIZ) (Staphylococcus aureus [12]): 6 mm

Structure (SMILES): C[C@@H](c1nc(-c2ccc(C#N)cc2)cs1)[C@](O)(Cn1cncn1)c1ccc(F)cc1F [RAVUCONAZOLE]
MIC80 (Candida albicans [3]): 0.25 µg/mL (≈ 0.571 µM)
MIC80 (Trichophyton rubrum): 0.125 µg/mL (≈ 0.286 µM)
MIC80 (Candida albicans [4]): 0.062 µg/mL (≈ 0.142 µM)
MIC80 (Nannizzia gypsea): 1 µg/mL (≈ 2.29 µM)
MIC80 (Cryptococcus neoformans [5]): 0.125 µg/mL (≈ 0.286 µM)
MIC80 (Aspergillus fumigatus): 2 µg/mL (≈ 4.57 µM)
MIC80 (Nakaseomyces glabratus): 0.125 µg/mL (≈ 0.286 µM)

More lines, now with the values ahead:

MIC (Bacillus subtilis [8]): 1.25 µg/mL (≈ 4 µM)
MIC (Pseudomonas aeruginosa): 1.25 µg/mL (≈ 4 µM)
Structure (SMILES): C=CCCC1CC(=O)N1Cc1cn(-c2ccc(OC)cc2)nn1 (stereo not given)

MIC (Candida albicans [6]): 0.5 µg/mL (≈ 1.6 µM)
MIC (Cryptococcus neoformans [7]): 0.5 µg/mL (≈ 1.6 µM)
Structure (SMILES): O=C(c1ccc(Cl)cc1)C(Cc1ccccc1)n1cncn1 (stereo not given)

MIC (Bacillus subtilis [9]): 1.56 µg/mL
MIC (Staphylococcus aureus [10]): 1.56 µg/mL
MIC (Salmonella typhimurium): 1.56 µg/mL
MIC (Micrococcus luteus): 1.56 µg/mL
MIC (Proteus vulgaris): 1.56 µg/mL
MIC (Escherichia coli): 1.56 µg/mL
Structure (SMILES): Cc1c(-c2nn(-c3ccccc3)cc2C2SCC(=O)N2c2cc(F)ccc2F)nnn1-c1ccccc1 (stereo not given)

MIC (Bacillus subtilis [8]): 1.25 µg/mL (≈ 3.95 µM)
MIC (Pseudomonas aeruginosa): 1.25 µg/mL (≈ 3.95 µM)
Structure (SMILES): C=CCCC1CC(=O)N1Cc1cn(-c2ccc(Cl)cc2)nn1 (stereo not given)

MIC (Candida albicans [6]): 0.5 µg/mL (≈ 1.4 µM)
MIC (Cryptococcus neoformans [7]): 0.5 µg/mL (≈ 1.4 µM)
Structure (SMILES): O=C(c1ccc(Br)cc1)C(Cc1ccccc1)n1cncn1 (stereo not given)

MIC (Aspergillus niger): 27.1 µg/mL (≈ 59 µM)
Structure (SMILES): CCCCCCCCCCCCCCCc1nnc(S)n1/N=C\c1ccc([N+](=O)[O-])cc1

MIC (Candida albicans [6]): 0.5 µg/mL (≈ 1.69 µM)
MIC (Cryptococcus neoformans [7]): 0.5 µg/mL (≈ 1.69 µM)
Structure (SMILES): O=C(c1ccc(F)cc1)C(Cc1ccccc1)n1cncn1 (stereo not given)

MIC80 (Candida albicans [3]): 0.5 µg/mL (≈ 1.1 µM)
MIC80 (Trichophyton rubrum): 1 µg/mL (≈ 2.19 µM)
MIC80 (Candida albicans [4]): 0.125 µg/mL (≈ 0.274 µM)
MIC80 (Nannizzia gypsea): 1 µg/mL (≈ 2.19 µM)
MIC80 (Cryptococcus neoformans [5]): 1 µg/mL (≈ 2.19 µM)
MIC80 (Aspergillus fumigatus): 4 µg/mL (≈ 8.76 µM)
MIC80 (Nakaseomyces glabratus): 0.5 µg/mL (≈ 1.1 µM)
Structure (SMILES): COc1ccc(-c2cc(CO[C@H](C)[C@](O)(Cn3cncn3)c3ccc(F)cc3F)on2)cc1

MIC (Bacillus subtilis [8]): 1.25 µg/mL (≈ 3.82 µM)
MIC (Pseudomonas aeruginosa): 1.25 µg/mL (≈ 3.82 µM)
Structure (SMILES): C=CCCC1CC(=O)N1Cc1cn(-c2cccc([N+](=O)[O-])c2)nn1 (stereo not given)
